Publication PMC3914206

How the values were obtained:
Type in all cases: binding
Settings in all cases: Compound Concentration 10 µM
[1] = biological target: T1, panel of 442 kinases (Homo sapiens, UniProt Q00526)
T1 construct: purchased KINOMEscan
Text: (§1) We assessed the selectivity of members of this scaffold using the KINOMEscan methodology across a near comprehensive panel of 442 kinases [[18,27]].

[2] = biological target: T2, panel of 442 kinases (Homo sapiens, UniProt P68400)
T2 construct: purchased KINOMEscan
T2 sequence (P68400 whole entry): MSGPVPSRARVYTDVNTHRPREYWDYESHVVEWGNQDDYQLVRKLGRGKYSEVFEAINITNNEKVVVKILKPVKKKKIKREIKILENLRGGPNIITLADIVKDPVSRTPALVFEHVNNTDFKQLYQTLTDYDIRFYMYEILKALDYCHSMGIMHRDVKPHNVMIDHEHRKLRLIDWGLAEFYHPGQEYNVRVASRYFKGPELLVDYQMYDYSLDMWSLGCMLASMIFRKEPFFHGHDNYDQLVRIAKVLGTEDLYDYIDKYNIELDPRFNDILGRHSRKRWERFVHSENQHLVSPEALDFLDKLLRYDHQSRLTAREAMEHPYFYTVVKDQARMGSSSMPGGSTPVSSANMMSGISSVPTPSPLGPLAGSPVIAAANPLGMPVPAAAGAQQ
Text: as §1

[3] = biological target: T3, panel of 442 kinases (Homo sapiens, UniProt Q16832)
T3 construct: purchased KINOMEscan
T3 sequence (Q16832 22-855): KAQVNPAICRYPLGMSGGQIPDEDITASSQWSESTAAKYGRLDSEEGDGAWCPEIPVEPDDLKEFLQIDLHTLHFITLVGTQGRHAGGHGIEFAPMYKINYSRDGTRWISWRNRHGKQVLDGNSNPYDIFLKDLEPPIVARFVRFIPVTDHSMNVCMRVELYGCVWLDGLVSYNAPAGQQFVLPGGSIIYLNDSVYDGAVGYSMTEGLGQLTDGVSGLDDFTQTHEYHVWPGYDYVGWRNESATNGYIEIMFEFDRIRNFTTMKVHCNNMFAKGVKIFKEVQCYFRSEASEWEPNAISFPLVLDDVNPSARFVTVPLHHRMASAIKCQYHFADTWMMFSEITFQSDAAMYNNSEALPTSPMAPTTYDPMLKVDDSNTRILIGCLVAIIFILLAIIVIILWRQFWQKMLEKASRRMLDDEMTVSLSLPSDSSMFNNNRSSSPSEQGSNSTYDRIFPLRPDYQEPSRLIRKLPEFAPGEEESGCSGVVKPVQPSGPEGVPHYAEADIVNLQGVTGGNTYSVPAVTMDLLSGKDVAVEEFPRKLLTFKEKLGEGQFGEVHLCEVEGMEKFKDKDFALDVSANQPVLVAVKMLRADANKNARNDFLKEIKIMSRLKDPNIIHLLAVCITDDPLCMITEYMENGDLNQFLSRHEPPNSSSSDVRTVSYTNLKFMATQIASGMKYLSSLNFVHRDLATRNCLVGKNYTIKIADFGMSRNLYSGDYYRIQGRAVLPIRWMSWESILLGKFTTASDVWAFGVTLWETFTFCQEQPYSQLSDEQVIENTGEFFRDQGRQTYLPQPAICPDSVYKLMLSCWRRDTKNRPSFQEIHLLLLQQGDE
Text: as §1

T1 sequence (Q00526 whole entry): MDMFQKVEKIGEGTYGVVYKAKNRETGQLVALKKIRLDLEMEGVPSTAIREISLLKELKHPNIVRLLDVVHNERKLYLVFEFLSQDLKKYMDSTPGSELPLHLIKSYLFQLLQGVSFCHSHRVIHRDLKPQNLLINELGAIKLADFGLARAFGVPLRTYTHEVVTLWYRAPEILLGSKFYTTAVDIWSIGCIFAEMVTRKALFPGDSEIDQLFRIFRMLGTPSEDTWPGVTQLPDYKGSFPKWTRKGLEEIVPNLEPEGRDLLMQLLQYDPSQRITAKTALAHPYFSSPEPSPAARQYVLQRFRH

Compound | KINOMEscan: CDK3 [1] | KINOMEscan: CSNK2A1 [2] | KINOMEscan: DDR2 [3]
COc1cc(C(=O)N2CCC(N3CCN(C)CC3)CC2)ccc1Nc1ncc2c(n1)N(C1CCCC1)c1ccccc1C(=O)N2C [Compound 25, 11-cyclopentyl-2-((2-methoxy-4-(4-(4-methylpiperazin-1-yl)piperidine-1-carbonyl)phenyl)amino)-5-methyl-5H-benzo[e]pyrimido[5,4-b][1,4]diazepin-6(11H)-one] | 100 | 100 | 96
COc1cc(C(=O)N2CCC(N3CCN(C)CC3)CC2)ccc1Nc1ncc2c(n1)N(C)c1ccccc1C(=O)N2C [15 (LRRK2-IN-1)] | 100 | 100 | 100
CCOc1cc(C(=O)N2CCC(N3CCN(C)CC3)CC2)ccc1Nc1ncc2c(n1)N(C1CCCC1)c1ccccc1C(=O)N2C [Compound 26] | 100 | 89 | 81
